Key:
[1] = under overdose conditions; cited from earlier work
[2] = human, in vivo
Procedure: Serum samples were analyzed for acetaminophen-protein adducts (as measured by acetaminophen-cysteine or APAP-CYS) using a high-performance liquid chromatography with electrochemical detection (HPLC-EC) method. All serum samples were dialyzed, treated with protease, and then precipitated with trichloracetic acid.
The severity of liver injury was stratified by the highest recorded value for AST concentration.
The subgroups were based on the severity of toxicity defined as the highest recorded value for AST concentration for each patient over the period of hospitalization.

Row | Compound | reported elimination half-life [1] | mean (±SD) half-life of adducts in serum [2] [days]
1 | CC(=O)Nc1ccc(O)cc1 [APAP, Acetaminophen] | about 18 hours | 
2 | 3-(cystein-S-yl) APAP (3-Cys-A)-protein adducts [APAP-protein adducts] |  | 1.47 ± 0.30
